The term half-life denotes the time needed for the level to fall by half in the phase considered.

SMILES strings stand for the structures. Like-named read-outs stand apart in the source and are kept apart here.

One data set has as its system Kv7 channel. As to conditions: XE991 vs linopirdine; cited from earlier work.
Data set [1] has as its system rats hemorrhaged to induce hemorrhagic shock. Nature of the data set: Fluid resuscitation after hemorrhagic shock, intravenous bolus injection at end of shock period. In kind it is in vivo, rat. As to conditions: for fluid requirements to resuscitate to a MAP of 70 mmHg: mean±SD. As to the method: Further phases of the investigation entailed the use of anesthetized male Sprague-Dawley rats that were hemorrhaged to a mean arterial blood pressure (MAP) of 25 mmHg for thirty minutes to induce hemorrhagic shock, followed by fluid resuscitation with normal saline to a MAP of 70 mmHg until t=75 minutes. Hemodynamics and fluid requirements were continuously monitored.
FIG. 3 contains three plots evidencing the ability of linopirdine to dose-dependently reduce fluid requirements to maintain hemodynamics during resuscitation from induced hemorrhagic shock. At the end of the hemorrhagic shock period (t=30 min), normal saline alone (“vehicle”; n=4), 1 mg/kg (n=5), 3 mg/kg (n=3), or 6 mg/kg (n=3) linopirdine in 0.5 mL normal saline were bolus injected intravenously. Plot “A” represents the mean arterial blood pressure (MAP, mmHg), plot “B” represents the hemorrhage volume in percent of total blood volume, and plot “C” represents the resuscitation fluid requirements to maintain blood pressure at 70 mmHg. Fluid requirements to resuscitate to a MAP of 70 mmHg were: 65±34 mL/kg with normal saline alone and 57±13 mL/kg, 22±8 mL/kg (p<0.05 vs. normal saline alone) and 22±11 mL/kg (p<0.05 vs. normal saline alone) with 1 mg/kg, 3 mg/kg, and 6 mg/kg linopirdine, respectively. The effect of linopirdine to reduce fluid requirements to maintain hemodynamics during resuscitation from hemorrhagic shock appeared to be saturated at a bolus dose of about 3 mg/kg linopirdine. As compared with normal saline-treated animals, a bolus injection of linopirdine (3 mg/kg and 6 mg/kg) reduced fluid resuscitation requirements by 70%. Data are mean±SD. *:p<0.05 vs. normal saline alone. Two-way ANOVA/Bonferroni post-hoc multiple comparison test.
At the end of the hemorrhagic shock period (t=30 min), normal saline alone (“vehicle”; n=3) or 1 mg/kg (n=3) of XE991 in 0.5 mL normal saline were injected intravenously. Plot “A” represents the mean arterial blood pressure (MAP, mmHg), plot “B” represents the hemorrhage volume in percent of total blood volume, and plot “C” represents the resuscitation fluid requirements to maintain blood pressure at 70 mmHg. […] Data are mean±SD. *:p<0.05 vs. normal saline alone. Two-way ANOVA/Bonferroni post-hoc multiple comparison test.

For data set [2] the following is noted: intravenous injection of 2.5 mg/kg in rats; cited from earlier work.
The next data set relates to normal rats. Nature of the data set: Effect of intravenous bolus doses on blood pressure in normal anesthetized rats (sham, no hemorrhage). In kind it is in vivo, rat. As to conditions: for peak mean arterial blood pressure (MAP): normal rats n=3, baseline MAP 92±2.5 mmHg, mean±SD. On the procedure: Initial phases of the investigation entailed the administration of linopirdine to anesthetized male Sprague-Dawley rats to determine its effect on blood pressure. Hemodynamics and fluid requirements were continuously monitored.
FIG. 1 contains a plot representing the effect of linopirdine on blood pressure in normal rats (sham—no hemorrhage, n=3) that received five increasing intravenous (i.v.) bolus doses of linopirdine (0.1-6 mg per kg of body weight) in 0.5 mL normal saline (NS) at fifteen minute intervals. […] Data are mean±SD.
FIG. 2 contains a plot representing the effect of the Kv7 channel activator retigabine on blood pressure when administered to normal rats (sham—no hemorrhage, n=3) by intravenous injection in increasing dosages of 0.1 mg/kg, 0.5 mg/kg, 1 mg/kg, 3 mg/kg, 6 mg/kg, and 12 mg/kg in 0.5 mL normal saline. […] Data are mean±SD.

Data set [3] deals with rats hemorrhaged to induce hemorrhagic shock. As to the kind of experiment: Fluid resuscitation after hemorrhagic shock, resuscitation fluid (normal saline) supplemented with drug. In kind it is in vivo, rat. As to conditions: for fluid requirements to resuscitate to a MAP of 70 mmHg: mean±SD. As to the method:
Further phases of the investigation entailed the use of anesthetized male Sprague-Dawley rats that were hemorrhaged to a mean arterial blood pressure (MAP) of 25 mmHg for thirty minutes to induce hemorrhagic shock, followed by fluid resuscitation with normal saline to a MAP of 70 mmHg until t=75 minutes. Hemodynamics and fluid requirements were continuously monitored. […] At the end of the hemorrhagic shock period (t=30 min), animals were resuscitated with normal saline alone (“vehicle”; n=4) or normal saline supplemented with 1.25 (n=4), 6.25 (n=3), 12.5 (n=4), or 200 (n=6) […] of linopirdine. Plot “A” represents the mean arterial blood pressure (MAP, mmHg), plot “B” represents the hemorrhage volume in percent of total blood volume, and plot “C” represents the resuscitation fluid requirements to maintain blood pressure at 70 mmHg. Fluid requirements to resuscitate to a MAP of 70 mmHg were: 73±12 mL/kg with NS, 72±24 mL/kg with NS supplemented with 1.25 μg/mL linopirdine and 61±20 mL/kg, 36±9 mL/kg (p<0.05 vs. NS alone) and 31±9 mL/kg (p<0.05 vs. NS alone) with NS supplemented with 6.25 μg/mL, 12.5 μg/mL and 200 μg/mL linopirdine, respectively. […] Data are mean±SD. *:p<0.05 vs. normal saline alone. Two-way ANOVA/Bonferroni post-hoc multiple comparison test.

For data set [4] the following is noted: oral administration in humans; cited from earlier work.
For data set [5] the following is noted: phase 1 and phase 2 clinical trials as cognition-enhancing drug in Alzheimer's disease; cited from earlier work.
The conditions of data set [6]: rat, in vivo. On the procedure:
After intravenous injection of 2.5 mg/kg linopirdine, a half-life of 0.6 hours has been determined in rats. Thus, the short half-life would indicate that linopirdine is a drug that is easily controllable if adverse effects were to occur.

Take `O=C1c2ccccc2C(Cc2ccncc2)(Cc2ccncc2)c2ccccc21` [XE991]: the “potency for channel blockade relative to linopirdine” value in the data set with Kv7 channel is “five to ten-fold higher potency”. In addition, in data set [1] (XE991 1 mg/kg i.v. bolus, n=3, compared with linopirdine 3 mg/kg and 6 mg/kg), the “effect on resuscitation fluid requirements relative to linopirdine” value is listed as “comparable effect”.
As to `O=C1N(c2ccccc2)c2ccccc2C1(Cc1ccncc1)Cc1ccncc1` [linopirdine], the half-life in data set [2] is 36 min; in data set [4], 24 to 192 min. Besides, the “transient increase of mean arterial blood pressure” value with normal rats (6 mg/kg i.v. injection, normal rats) is listed as “approximately 10%”. Also, the “reversal of retigabine-induced hypotension” value in the data set with normal rats (6 mg/kg linopirdine injected after last (12 mg/kg) dosage of retigabine, normal rats) is listed as “able to be reversed”. Further, the “time for MAP to return to baseline after bolus” value in the data set on normal rats (0.1-6 mg/kg i.v. bolus doses, normal rats) is “ten to fifteen”. Also, the “effect on systemic blood pressures” value with normal rats (high i.v. bolus dose 6 mg/kg and total i.v. dose 10.6 mg/kg within one hour, normotensive rats) was “only minimal and short-lived increases”. Also, the “peak mean arterial blood pressure (MAP)” value worked out at 92±2 mmHg with normal rats (linopirdine 0.1 mg/kg i.v. bolus); 93±2 mmHg in the data set with normal rats (linopirdine 0.5 mg/kg i.v. bolus); 95±4 mmHg in the data set on normal rats (linopirdine 1 mg/kg i.v. bolus); 100±2 mmHg in the data set on normal rats (linopirdine 3 mg/kg i.v. bolus); 105±0.6 mmHg in the data set with normal rats (linopirdine 6 mg/kg i.v. bolus). In addition, the “fluid requirements to resuscitate to a MAP of 70 mmHg” value in data set [3] (NS supplemented with 1.25 μg/mL linopirdine, n=4, NS alone 73±12 mL/kg) amounted to 72 ± 24 mL/kg; in data set [3] (NS supplemented with 6.25 μg/mL linopirdine, n=3, NS alone 73±12 mL/kg), 61 ± 20 mL/kg; in data set [3] (NS supplemented with 12.5 μg/mL linopirdine, n=4, p<0.05 vs. NS alone (73±12 mL/kg), cumulative dose 0.446 mg/kg) it was 36 ± 9 mL/kg; in data set [3] (NS supplemented with 200 μg/mL linopirdine, n=6, p<0.05 vs. NS alone (73±12 mL/kg)), 31 ± 9 mL/kg; in data set [1] (1 mg/kg i.v. bolus at t=30 min, n=5, normal saline alone 65±34 mL/kg), 57 ± 13 mL/kg; in data set [1] (3 mg/kg i.v. bolus at t=30 min, n=3, p<0.05 vs. normal saline alone (65±34 mL/kg)), 22 ± 8 mL/kg. Moreover, the “fluid requirements to resuscitate to a MAP of 70 mmHg” value in data set [1] (6 mg/kg i.v. bolus at t=30 min, n=3, p<0.05 vs. normal saline alone (65±34 mL/kg)) is 22 ± 11 mL/kg. For the same compound, the “concentration in normal saline at which the effect was saturated” value in data set [3] (supplemented resuscitation fluid, hemorrhagic shock rats) was 12.5 µg/mL. For the same compound, in data set [1] (bolus injection 3 mg/kg and 6 mg/kg), the “reduction of fluid resuscitation requirements compared with normal saline-treated animals” value is reported as 70%. In addition, the “bolus dose at which the fluid-sparing effect appeared saturated” value in data set [1] (i.v. bolus, hemorrhagic shock rats) is listed as “about 3 mg/kg”. Moreover, the “reduction of resuscitation fluid requirements at saturating dose” value in data set [1] (single dose of three milligrams per kilogram at beginning of fluid resuscitation) is given as 65%. Also, the “adverse effects in clinical trials” value in data set [5] is given as “no relevant adverse effects”. Further, in data set [6], the “toxicity associated with treatment” value was “No toxicity”.

These data come from patent publication US20170304281A1, “METHODS OF USING POTASSIUM CHANNEL INHIBITORS (BLOCKERS) FOR FLUID RESUSCITATION” (Loyola University of Chicago, priority 2016, published 2017).
